We go through two substances from patent publication US20150258194A1, “MODULATING TRANSENDOTHELIAL MIGRATION AND RECRUITMENT OF GRANULOCYTES BY MODULATING C-MET PATHWAY” (VIB VZW, priority 2012, published 2015).

For experiment [1], the target named is MET (c-Met, HGF receptor) on mouse neutrophils (mouse) (UniProt P16056). Kind of experiment: cell-based or functional assay.
The subject of experiment [2] is Met expression in neutrophils. Kind of experiment: Q-PCR / Western blot of Met expression in mouse neutrophils. The format is cell-based. As to the method:
Western blot: 2×10^6 bone marrow neutrophils from WT mice were stimulated with TCM, CCM, 100 ng/ml of murine TNF-α (or mock medium 0% FBS or 10% FBS as control) for 20 hours at 37° C. For the co-culture with HUVEC, a monolayer of HUVEC was stimulated for 4 hours with 5 ng/ml IL-1 at 37° C., and washed before neutrophil seeding. After 20 hours of stimulation, neutrophils were collected using Cell Dissociation Buffer, Enzyme Free, PBS-Based (Gibco). Cells were washed in PBS, lysed in 15 μl of a protease inhibitor mixture and incubated for 15 minutes on ice. The stock solution was obtained by dissolving one tablet of Complete Mini protease inhibitor mixture (CI, Roche) in 5 ml of PBS with 2 mM diisopropyl fluorophosphate (DFP; Acros Organics, Morris Plains, N.J.). After addition of an equal amount of 2×SDS sample buffer supplemented with 4% 2-mercaptoethanol, the lysates were boiled for 15 minutes and kept at -80° C. until use. 30×10^6 neutrophils purified from healthy volunteer blood and stimulated with A549-CM, 100 ng/ml of human TNF-α, 50 ng/ml LPS (or mock medium 10% FBS as control) for 20 hours. Cells were incubated with DFP 2.7 mM for 15' at 4° C., collected and washed in PBS, DFP 2.7 mM, CI 1X, and lysed in hot […] buffer (25% SDS 10%, 25% Tris-HCl pH 6.8) at 96° C. for 10'. Cell lysates were sonicated, cleared and quantified. 6× loading buffer was added before loading on the gel. The following antibodies were used: mouse anti-mouse Met (clone 3D4; Invitrogen), mouse anti-mouse β-actin (Santa Cruz), rabbit anti-human Met (clone D1C2-XP; Cell Signaling), HRP-conjugated anti-beta-tubulin (Abcam). Signal was visualized by Enhanced Chemiluminescent Reagents (ECL, Invitrogen) or West Femto by Thermo Scientific according to the manufacturer's instructions. Quantitative RT-PCR: for mRNA analysis, 1×10^5 or 3×10^5 mouse or human neutrophils, respectively, were incubated in normoxic (21% oxygen) or hypoxic condition (1% oxygen) or stimulated with TCM (plus 50 μg/ml Enbrel or human IgG when indicated), CCM, A549-CM, 100 ng/ml of murine or human TNF-α, 50 ng/ml LPS, or mock medium in 96-multiwell for 4 hours at 37° C. 2×10^5 HUVEC were seeded in 24-multiwell coated with 0.1% gelatin and stimulated with 5 ng/ml IL-1 in DMEM 10% FBS for 4 hours at 37° C. Cells were washed in PBS, collected in RLT buffer (QIAGEN®) and kept at -80° C. RNA was extracted with an RNase Micro kit (QIAGEN®) according to manufacturer's instructions. Reverse transcription to cDNA was performed with the SuperScript III Reverse Transcriptase (Invitrogen) according to manufacturer's protocol. […]
(In general: Immunoblotting shows a protein as a band on a membrane.)

Experiment [3] deals with MET expression in human neutrophils. Kind of experiment: Q-PCR / Western blot of MET expression in human neutrophils. It is filed as cell-based. The following applies: Enbrel. The procedure:
Western blot: 2×10^6 bone marrow neutrophils from WT mice were stimulated with TCM, CCM, 100 ng/ml of murine TNF-α (or mock medium 0% FBS or 10% FBS as control) for 20 hours at 37° C. For the co-culture with HUVEC, a monolayer of HUVEC was stimulated for 4 hours with 5 ng/ml IL-1 at 37° C., and washed before neutrophil seeding. After 20 hours of stimulation, neutrophils were collected using Cell Dissociation Buffer, Enzyme Free, PBS-Based (Gibco). Cells were washed in PBS, lysed in 15 μl of a protease inhibitor mixture and incubated for 15 minutes on ice. The stock solution was obtained by dissolving one tablet of Complete Mini protease inhibitor mixture (CI, Roche) in 5 ml of PBS with 2 mM diisopropyl fluorophosphate (DFP; Acros Organics, Morris Plains, N.J.). After addition of an equal amount of 2×SDS sample buffer supplemented with 4% 2-mercaptoethanol, the lysates were boiled for 15 minutes and kept at -80° C. until use. […] Cell lysates were sonicated, cleared and quantified. […] Quantitative RT-PCR: for mRNA analysis, 1×10^5 or 3×10^5 mouse or human neutrophils, respectively, were incubated in normoxic (21% oxygen) or hypoxic condition (1% oxygen) or stimulated with TCM (plus 50 μg/ml Enbrel or human IgG when indicated), CCM, A549-CM, 100 ng/ml of murine or human TNF-α, 50 ng/ml LPS, or mock medium in 96-multiwell for 4 hours at 37° C. […]

With “Hepatocyte Growth Factor (HGF), murine (from UniProt Q08048 33-728) (ligand)”, in experiment [1], the adhesion of neutrophils to an activated endothelium (HUVEC pre-stimulated with IL-1), FACS count was determined as 48%.

As to Enbrel [reference compound], the “Met induction in mouse neutrophils stimulated with TCM” value in experiment [2] (TCM, 50 μg/ml Enbrel) was “abolishment of Met induction”. For the same substance, the “Met induction in neutrophils upon co-culture with activated ECs” value in experiment [2] (mouse neutrophils, HUVEC (IL-1), TNF-a blockade) is recorded as “prevented Met induction”. In addition, the “Met induction in human neutrophils stimulated with A549-CM” value in experiment [3] was “abolishment of Met induction”.
